What all share (type): biochemical
One assay deals with T1, recombinant human VAP-1 (Homo sapiens, UniProt Q16853).
T1 construct: purchased R&D systems
T1 sequence (Q16853 1-763): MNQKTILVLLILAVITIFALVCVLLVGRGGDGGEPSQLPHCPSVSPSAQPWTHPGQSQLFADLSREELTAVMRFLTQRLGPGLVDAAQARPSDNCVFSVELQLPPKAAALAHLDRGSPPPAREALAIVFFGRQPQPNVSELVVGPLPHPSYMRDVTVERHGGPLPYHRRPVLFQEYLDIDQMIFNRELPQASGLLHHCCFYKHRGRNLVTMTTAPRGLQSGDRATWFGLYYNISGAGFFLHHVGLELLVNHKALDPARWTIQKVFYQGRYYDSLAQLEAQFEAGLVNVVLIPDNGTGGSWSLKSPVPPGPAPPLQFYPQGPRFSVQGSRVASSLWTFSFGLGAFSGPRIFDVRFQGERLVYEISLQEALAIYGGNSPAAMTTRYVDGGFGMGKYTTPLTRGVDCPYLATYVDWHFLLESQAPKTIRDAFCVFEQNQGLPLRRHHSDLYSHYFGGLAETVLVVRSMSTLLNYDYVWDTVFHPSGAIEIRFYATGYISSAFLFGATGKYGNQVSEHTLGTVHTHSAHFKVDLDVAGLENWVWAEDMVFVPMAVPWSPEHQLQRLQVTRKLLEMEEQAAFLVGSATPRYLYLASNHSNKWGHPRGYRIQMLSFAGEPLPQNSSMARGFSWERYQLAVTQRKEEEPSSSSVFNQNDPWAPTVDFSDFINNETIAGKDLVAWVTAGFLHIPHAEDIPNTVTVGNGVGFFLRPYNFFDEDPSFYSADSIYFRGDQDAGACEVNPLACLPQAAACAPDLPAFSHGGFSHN
As to the kind of experiment: Activity evaluation on recombinant human VAP-1 (Amplex Red/HRP-coupled hydrogen peroxide assay, benzylamine substrate). Particulars: read-out: Inhibitory Activity (IC50, nM) human VAP-1. The essentials:
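Hydrogen peroxide from benzylamine (1 mM) oxidation by human recombinant VAP-1 detected via HRP-coupled Amplex Red (200 uM) fluorescence, kinetic over 1–2 h. Enzyme and compound preincubated 30 min at 37 °C, pH 7.4 phosphate; 8-point dose response, signal-rate decrease versus DMSO control fitted to four-parameter logistic for IC50.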

For assay [1], the target named is T2, recombinant human DAO (diamine oxidase) (Homo sapiens, UniProt P19801).
T2 construct: purchased R&D systems
T2 sequence (P19801 20-751): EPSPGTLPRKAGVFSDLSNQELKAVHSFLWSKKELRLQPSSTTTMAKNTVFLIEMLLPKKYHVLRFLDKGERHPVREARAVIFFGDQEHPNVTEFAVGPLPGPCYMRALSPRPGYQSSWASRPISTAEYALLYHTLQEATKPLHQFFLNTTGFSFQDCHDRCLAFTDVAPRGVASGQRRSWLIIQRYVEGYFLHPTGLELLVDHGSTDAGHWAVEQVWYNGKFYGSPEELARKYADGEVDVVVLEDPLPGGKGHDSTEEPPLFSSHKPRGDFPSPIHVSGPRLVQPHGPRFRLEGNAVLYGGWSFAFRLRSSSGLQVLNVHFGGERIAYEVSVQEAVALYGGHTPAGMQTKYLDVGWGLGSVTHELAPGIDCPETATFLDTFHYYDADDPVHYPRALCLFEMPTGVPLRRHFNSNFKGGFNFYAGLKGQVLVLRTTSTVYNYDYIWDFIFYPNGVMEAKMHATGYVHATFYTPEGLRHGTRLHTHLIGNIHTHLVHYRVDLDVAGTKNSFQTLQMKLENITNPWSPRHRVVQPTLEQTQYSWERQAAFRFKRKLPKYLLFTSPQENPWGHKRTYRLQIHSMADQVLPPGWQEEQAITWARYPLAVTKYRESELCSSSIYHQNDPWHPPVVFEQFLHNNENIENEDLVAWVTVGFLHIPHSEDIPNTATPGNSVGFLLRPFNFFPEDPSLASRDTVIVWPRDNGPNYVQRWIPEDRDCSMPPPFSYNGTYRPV
As to the kind of experiment: Activity evaluation on recombinant human DAO (Amplex Red/HRP-coupled assay, 1 mM putrescine substrate). The conditions noted are these: read-out: Inhibitory Activity (IC50, nM) DAO. The essentials:
(§1)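 8-pt 1:3 dilution series, final DMSO <1%; 30 min 37 °C preincubation w/ enzyme, 50 mM Na phosphate pH 7.4; + 200 uM Amplex Red, 1 U/mL HRP, substrate (MAO-A tyramine 0.5 mM; MAO-B benzylamine 1 mM; DAO putrescine 1 mM); fluor. rate 544/590 nm, 1-2 h; 4-param IC50.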

The target of assay [2] is T3, recombinant human MAO-B (monoamine oxidase-B) (Homo sapiens, UniProt P27338).
T3 construct: purchased Sigma-Aldrich
T3 sequence (P27338 1-520): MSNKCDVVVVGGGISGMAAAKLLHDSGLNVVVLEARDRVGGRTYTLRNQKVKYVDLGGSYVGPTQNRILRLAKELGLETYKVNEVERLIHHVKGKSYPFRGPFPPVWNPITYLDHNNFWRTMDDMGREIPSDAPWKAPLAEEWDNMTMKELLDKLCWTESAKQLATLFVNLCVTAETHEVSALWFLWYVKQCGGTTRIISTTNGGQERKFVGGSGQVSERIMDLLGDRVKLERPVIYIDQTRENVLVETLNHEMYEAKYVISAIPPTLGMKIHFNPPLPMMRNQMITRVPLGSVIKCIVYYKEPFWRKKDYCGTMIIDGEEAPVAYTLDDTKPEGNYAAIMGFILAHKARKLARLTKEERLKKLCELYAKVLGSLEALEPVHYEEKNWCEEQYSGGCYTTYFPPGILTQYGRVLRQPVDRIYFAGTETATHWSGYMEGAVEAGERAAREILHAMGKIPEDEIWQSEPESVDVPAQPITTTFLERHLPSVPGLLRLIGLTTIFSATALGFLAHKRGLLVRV
As to the kind of experiment: Activity evaluation on recombinant human MAO-B (Amplex Red/HRP-coupled assay, 1 mM benzylamine substrate). Particulars: read-out: Inhibitory Activity (IC50, nM) MAO-B. The method, boiled down: as §1

The target of assay [3] is T4, recombinant human MAO-A (monoamine oxidase-A) (Homo sapiens, UniProt P21397).
T4 construct: purchased Sigma-Aldrich
T4 sequence (P21397 1-527): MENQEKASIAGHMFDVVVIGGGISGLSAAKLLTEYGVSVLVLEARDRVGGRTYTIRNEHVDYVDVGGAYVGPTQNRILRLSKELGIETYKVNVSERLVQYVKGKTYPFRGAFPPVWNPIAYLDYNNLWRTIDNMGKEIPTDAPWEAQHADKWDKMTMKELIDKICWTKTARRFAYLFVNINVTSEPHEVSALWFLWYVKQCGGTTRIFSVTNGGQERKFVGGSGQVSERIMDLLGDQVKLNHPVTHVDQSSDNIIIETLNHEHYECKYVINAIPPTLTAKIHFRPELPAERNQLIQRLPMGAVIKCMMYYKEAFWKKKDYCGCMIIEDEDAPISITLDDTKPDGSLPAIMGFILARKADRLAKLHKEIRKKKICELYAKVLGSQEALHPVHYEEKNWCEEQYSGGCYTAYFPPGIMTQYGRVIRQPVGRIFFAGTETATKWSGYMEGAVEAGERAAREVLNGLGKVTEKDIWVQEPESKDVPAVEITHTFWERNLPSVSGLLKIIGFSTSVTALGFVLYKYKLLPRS
As to the kind of experiment: Activity evaluation on recombinant human MAO-A (Amplex Red/HRP-coupled assay, 0.5 mM tyramine substrate). Particulars: read-out: Inhibitory Activity (IC50, nM) MAO-A. The essentials: as §1

The mark [4] stands for this setting: recombinant human VAP-1, benzylamine substrate.
Where [5] appears, read: recombinant human VAP-1, 30 min preincubation at 37° C., 1 mM benzylamine.

Where a name gives a salt, the structure may show the parent alone. Read-outs that look alike come from different tables or passages of the source.

Take `CC(=O)N1CCN(c2ccc(-c3csc(Cn4cnn(CC(CN)=C(F)F)c4=O)c3)cc2)CC1` [Example 188, 4-[[4-[4-(4-acetylpiperazin-1-yl)phenyl]-2-thienyl]methyl]-2-[2-(aminomethyl)-3,3-difluoro-allyl]-1,2,4-triazol-3-one Trifluoroacetate]: the half-maximal inhibitory concentration (IC50) (commonly the midpoint of a concentration-inhibition curve) on recombinant human VAP-1 (setting [4]) is 3.4 nM; in assay [1] (1 mM putrescine substrate), 7400 nM; in assay [2] (1 mM benzylamine substrate), more than 100000 nM; in assay [3] (0.5 mM tyramine substrate), more than 100000 nM.

Consider `NCC(Cn1ncn(-c2ccc(-c3ccc4c(c3)OCO4)cc2F)c1=O)=C(F)F` [Example 35, 2-[2-(aminomethyl)-3,3-difluoro-allyl]-4-[4-(1,3-benzodioxol-5-yl)-2-fluoro-phenyl]-1,2,4-triazol-3-one Trifluoroacetate], for which the IC50 on recombinant human VAP-1 (setting [5]) was 0.3 nM; in assay [1] (1 mM putrescine) it was 540 nM; in assay [2] (1 mM benzylamine), 33 nM; in assay [3] (0.5 mM tyramine), more than 100000 nM.

Turning to `NCC(Cn1ncn(Cc2cc(-c3cnn(C(F)F)c3)cs2)c1=O)=C(F)F` [Example 194, 2-[2-(aminomethyl)-3,3-difluoro-allyl]-4-[[4-[1-(difluoromethyl)pyrazol-4-yl]-2-thienyl]methyl]-1,2,4-triazol-3-one Trifluoroacetate], the IC50 at recombinant human VAP-1 (setting [4]) is 2.9 nM; in assay [1] (1 mM putrescine substrate), 64000 nM; in assay [2] (1 mM benzylamine substrate), 9200 nM; in assay [3] (0.5 mM tyramine substrate), more than 100000 nM.

Turning to `NCC(Cn1ncn(Cc2ccc(C#Cc3cnc4c(c3)NC(=O)CO4)s2)c1=O)=C(F)F` [Example 169, 7-[2-[5-[[1-[2-(aminomethyl)-3,3-difluoro-allyl]-5-oxo-1,2,4-triazol-4-yl]methyl]-2-thienyl]ethynyl]-1H-pyrido[2,3-b][1,4]oxazin-2-one Trifluoroacetate], the IC50 is 0.2 nM on recombinant human VAP-1 (setting [5]), more than 100000 nM in assay [1] (1 mM putrescine), more than 100000 nM in assay [2] (1 mM benzylamine) and more than 100000 nM in assay [3] (0.5 mM tyramine).

As to `NCC(Cn1ncn(-c2ccc(-c3ccc(N4CCNCC4)cc3)cc2F)c1=O)=C(F)F` [Example 32, 2-[2-(aminomethyl)-3,3-difluoro-allyl]-4-[2-fluoro-4-(4-piperazin-1-ylphenyl)phenyl]-1,2,4-triazol-3-one Ditrifluoroacetate], the 50% inhibitory concentration (IC50) on recombinant human VAP-1 (setting [5]) was 1.3 nM; in assay [1] (1 mM putrescine) it was 670 nM; in assay [2] (1 mM benzylamine), 17000 nM; in assay [3] (0.5 mM tyramine), more than 100000 nM.

In the case of `CCn1cc(-c2cnc(-n3cnn(CC(CN)=C(F)F)c3=O)c(C)c2)cn1` [Example 75, 2-[2-(aminomethyl)-3,3-difluoro-allyl]-4-[5-(1-ethylpyrazol-4-yl)-3-methyl-2-pyridyl]-1,2,4-triazol-3-one Trifluoroacetate], the IC50 on recombinant human VAP-1 (setting [5]) was 0.7 nM; in assay [1] (1 mM putrescine) it was 20000 nM; in assay [2] (1 mM benzylamine), more than 100000 nM; in assay [3] (0.5 mM tyramine) it was more than 100000 nM.

For the compound `Cc1cc(C#Cc2ccc3c(n2)OCCN3)cnc1-n1cnn(CC(CN)=C(F)F)c1=O` [Example 246, 2-[2-(aminomethyl)-3,3-difluoro-allyl]-4-[5-[2-(2,3-dihydro-1H-pyrido[2,3-b][1,4]oxazin-6-yl)ethynyl]-3-methyl-2-pyridyl]-1,2,4-triazol-3-one ditrifluoroacetate], the IC50 at recombinant human VAP-1 (setting [4]) is 2.3 nM; in assay [1] (1 mM putrescine substrate) it was 59000 nM; in assay [2] (1 mM benzylamine substrate), 120000 nM; in assay [3] (0.5 mM tyramine substrate) it was more than 100000 nM.

For `CN1C(=O)CCc2cc(-c3ccc(Cn4cnn(CC(CN)=C(F)F)c4=O)s3)ccc21` [Example 138, 6-[5-[[1-[2-(aminomethyl)-3,3-difluoro-allyl]-5-oxo-1,2,4-triazol-4-yl]methyl]-2-thienyl]-1-methyl-3,4-dihydroquinolin-2-one Trifluoroacetate], the IC50 at recombinant human VAP-1 (setting [5]) was 0.1 nM; in assay [1] (1 mM putrescine), 13000 nM; in assay [2] (1 mM benzylamine), 15000 nM; in assay [3] (0.5 mM tyramine), more than 100000 nM.

As to `NCC(Cn1ncn(-c2ccc(Br)cc2F)c1=O)=C(F)F` [Example 5, 2-[2-(aminomethyl)-3,3-difluoro-allyl]-4-(4-bromo-2-fluoro-phenyl)-1,2,4-triazol-3-one Trifluoroacetate], the IC50 is 2.5 nM at recombinant human VAP-1 (setting [5]), 67000 nM in assay [1] (1 mM putrescine), 4900 nM in assay [2] (1 mM benzylamine) and more than 100000 nM in assay [3] (0.5 mM tyramine).

As to `CN(C)c1ccc(-c2cccc(Cn3cnn(CC(CN)=C(F)F)c3=O)c2)cn1` [Example 273, 2-[2-(aminomethyl)-3,3-difluoro-allyl]-4-[[3-[6-(dimethylamino)-3-pyridyl]phenyl]methyl]-1,2,4-triazol-3-one Trifluoroacetate], the IC50 is 1.8 nM at recombinant human VAP-1 (setting [4]), 39300 nM in assay [1] (1 mM putrescine substrate), 2900 nM in assay [2] (1 mM benzylamine substrate) and more than 100000 nM in assay [3] (0.5 mM tyramine substrate).

For `CS(=O)(=O)c1ccc(-c2cccc(-n3cnn(CC(CN)=C(F)F)c3=O)n2)cc1` [Example 46, 2-[2-(aminomethyl)-3,3-difluoro-allyl]-4-[6-(4-methylsulfonylphenyl)-2-pyridyl]-1,2,4-triazol-3-one Trifluoroacetate], the IC50 was 0.9 nM on recombinant human VAP-1 (setting [5]), 190 nM in assay [1] (1 mM putrescine), more than 100000 nM in assay [2] (1 mM benzylamine) and more than 100000 nM in assay [3] (0.5 mM tyramine).

(Values after US11168073B2, “3,3-difluoroallylamines or salts thereof and pharmaceutical compositions comprising the same” (YUHAN CORPORATION, priority 2018, dated 2021).)
